Experimental data as given in ChEMBL document CHEMBL3808320, “1,4-Diphenalkylpiperidines: A new scaffold for the design of potent inhibitors of the vesicular monoamine transporter-2” (Bioorg Med Chem Lett, 2016).

The molecules below were run against T1, Synaptic vesicular amine transporter (Rattus norvegicus, UniProt Q01827) (assay: Inhibition of [3H]DA uptake at VMAT2 in rat striata vesicles homogenate after 8 mins by liquid scintillation counting).
T1 sequence (Q01827 whole entry): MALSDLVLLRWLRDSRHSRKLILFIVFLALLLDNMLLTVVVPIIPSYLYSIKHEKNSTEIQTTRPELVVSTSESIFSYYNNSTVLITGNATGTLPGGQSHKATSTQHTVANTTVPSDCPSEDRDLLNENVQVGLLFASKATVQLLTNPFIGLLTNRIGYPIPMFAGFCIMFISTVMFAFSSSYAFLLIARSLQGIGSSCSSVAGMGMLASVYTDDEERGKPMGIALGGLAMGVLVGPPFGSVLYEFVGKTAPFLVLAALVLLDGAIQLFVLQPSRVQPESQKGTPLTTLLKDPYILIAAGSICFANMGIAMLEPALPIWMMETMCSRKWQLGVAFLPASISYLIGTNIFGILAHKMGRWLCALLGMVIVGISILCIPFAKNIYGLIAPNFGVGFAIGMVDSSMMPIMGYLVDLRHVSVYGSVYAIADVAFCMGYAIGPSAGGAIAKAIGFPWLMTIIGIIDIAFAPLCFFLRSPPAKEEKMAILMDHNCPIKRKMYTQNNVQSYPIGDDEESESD

Ki [nM]	Compound
120	c1ccc(CCC2CCN(CCc3ccccc3)CC2)cc1

The molecules below were run against Synaptic vesicular amine transporter (Rattus norvegicus) (UniProt Q01827) (assay: Potency index, ratio of lobelane Ki to compound Ki for VMAT2 in rat whole brain vesicles homogenate).
Synaptic vesicular amine transporter (Rattus norvegicus), sequence (Q01827 whole entry): as above

Compound	Ratio Ki
COc1cccc(CCN2CCC(CCc3ccccc3OC)CC2)c1	5
COc1ccccc1CCC1CCN(CCc2ccccc2OC)CC1	5

Each molecule was assayed against Synaptic vesicular amine transporter (Rattus norvegicus) (UniProt Q01827) (assay: Potency index, ratio of lobelane Ki to compound Ki for VMAT2 in rat striata vesicles homogenate).

Compound	Ratio Ki
COc1ccccc1CCC1CCN(CCc2ccc(F)cc2)CC1	4
COc1cccc(CCN2CCC(CCc3ccccc3OC)CC2)c1	4
COc1ccccc1CCC1CCN(CCc2ccccc2OC)CC1	4

These molecules were tested against T1, Synaptic vesicular amine transporter (assay: Displacement of [3H]DTBZ from VMAT2 in rat whole brain vesicles homogenate after 30 mins by liquid scintillation counting).
Format: tissue-based

Compound	Ki [nM]
COc1cccc(CCN2CCC(CCc3ccccc3)CC2)c1	270
COc1ccccc1CCN1CCC(Cc2ccccc2)CC1	2800
COc1ccc(CCC2CCN(CCc3ccc(OC)cc3)CC2)cc1	2500
COc1ccccc1CCN1CCC(CCc2ccccc2)CC1	260
COc1cccc(CCN2CCC(Cc3ccccc3)CC2)c1	1500
COc1ccc(CCN2CCC(Cc3ccccc3)CC2)cc1	1900
